Assays:
Type in all cases: binding
FZD1 = biological target: T1, FZD1 (Homo sapiens, UniProt Q9UP38); assay: NanoBRET screen HiBiT-FZD1 in HEK293
T1 construct: purchased Promega (in-house HiBiT-GPCR construct library, NanoBRET)
Experimental: (§1) Each tracer candidate was screened across the entire library of HiBiT-GPCR constructs using NanoBRET as the detection modality. As depicted in Figure 4A, the specificity of interactions was evaluated through decrease in BRET due to competitive displacement of a bound tracer by excess parental compound. Each tracer was analyzed for binding to each HiBiT-GPCR fusion in the absence and in the presence of competing parental compound. Briefly, HEK293 cells were transfected with HiBiT-GPCR constructs diluted into promoterless DNA to reduce expression and maximize translocation to the cell surface. Each tracer candidate was then screened at concentrations of 1 μM and 0.1 μM across cells expressing these fusions. Cells were treated for 1.5 h with tracer either alone or in the presence of 20 μM competing parental compound (i.e., control). BRET was measured upon addition of purified LgBiT and subsequent complementation with HiBiT genetically fused to a GPCR. The specificity of interactions was assessed through a decrease in BRET signal due to competitive displacement of the bound tracer. To further gauge the robustness of these interactions, the fold response over the control (i.e., BRETtracer/BRETcontrol) was calculated. We chose a 1.5-fold response, which translates to ≥7-fold signal over noise as the minimal threshold required to score an interaction as positive. […]. Below we highlight the screening results obtained for our exemplary fluorescent tracers based on Clozapine, Amitriptyline and AZD1283.
(§2) HiBiT-GPCR DNA constructs were diluted in 10 mM Tris pH 8 to a final concentration of 0.01 μg/μL, arrayed in 96-well plates and stored at −20 °C. For transfection, HEK293 cells were suspended in Opti-MEM (without phenol red) supplemented with 2% fetal bovine serum (Seradigm) and 100 units/mL penicillin–streptomycin (Gibco) at a final concentration of 220,000 cells/mL and dispensed into white 96-well plates at 90 μL/well. Subsequent transfections and screens were carried using an Agilent Bravo Automated Liquid Handling Platform. First, the 96-well HiBiT DNA arrays were diluted 25-fold in Opti-MEM (without serum or phenol red) to a final concentration of 0.0004 μg/μL and 20 μL of the diluted DNAs were transferred into new 96-well plates. Next, promoterless carrier DNA (1 μg/μL) was diluted 25-fold (0.04 μg/μL) and then dispensed into the diluted arrays at 20 μL/well. Following brief mixing, Viafect transfection reagent (Promega) diluted 16-fold into Opti-MEM was dispensed into the plates at 40 μL/well. After mixing by pipetting, plates were incubated for 10 min on the pipetting station deck. The DNA-transfection reagent complexes were then added to plates containing cells. To facilitate the screen, 10 μL of DNA-transfection reagent complexes were added in duplicates to the top 4 and bottom 4 rows, resulting in two identical 48-well arrays per plate. Plates with transfected cells were incubated for 18–20 h at 37 °C/5% CO2. A screen of each tracer across the entire library using two different concentrations requires duplicate plates of transfected cells. Depending on the number of tracers being screened, transfections can be scaled up using the same ratios. The next day, for each tracer, four 20× screening solutions in tracer dilution buffer (Promega) were prepared: two duplicates at final concentration of 20 μM and two duplicates at a final concentration of 2 μM. A competing unmodified compound was added to one of each duplicate at a final concentration of 400 μM. The four resulting solutions were diluted 4-fold in Opti-MEM without serum or phenol red to generate 5× solutions (5 µM and 0.5 µM tracer +/− 100 μM competing compound). To screen the library, a BioTek MultiFlo FX liquid dispenser was used to dispense 22.5 µL of tracer solution to the top 4 rows and 22.5 µL tracer + competing compound solution to the 4 bottom rows. Plates were briefly mixed on an orbital shaker and incubated for 1.5 h at room temperature. […]

CNR1 = biological target: T2, CNR1 (Homo sapiens, UniProt P21554); assay: NanoBRET screen HiBiT-CNR1 in HEK293
T2 construct: purchased Promega (in-house HiBiT-GPCR construct library, NanoBRET)
T2 sequence (P21554 whole entry): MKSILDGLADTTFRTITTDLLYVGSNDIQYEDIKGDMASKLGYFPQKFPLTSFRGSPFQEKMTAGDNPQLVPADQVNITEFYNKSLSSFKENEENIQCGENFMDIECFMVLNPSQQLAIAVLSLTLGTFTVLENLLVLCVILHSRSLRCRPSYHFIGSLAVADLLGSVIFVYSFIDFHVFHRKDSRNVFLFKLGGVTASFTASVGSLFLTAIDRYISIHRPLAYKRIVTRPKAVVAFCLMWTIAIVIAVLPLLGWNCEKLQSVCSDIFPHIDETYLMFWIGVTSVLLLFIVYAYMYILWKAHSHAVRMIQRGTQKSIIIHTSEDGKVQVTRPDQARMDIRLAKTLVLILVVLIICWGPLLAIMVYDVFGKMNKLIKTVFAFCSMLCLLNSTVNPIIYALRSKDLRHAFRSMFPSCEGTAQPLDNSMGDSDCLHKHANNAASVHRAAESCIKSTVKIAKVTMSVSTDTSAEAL
Experimental: as §1, §2

LHCGR = biological target: T3, LHCGR (Homo sapiens, UniProt P22888); assay: NanoBRET screen HiBiT-LHCGR in HEK293
T3 construct: purchased Promega (in-house HiBiT-GPCR construct library, NanoBRET)
T3 sequence (P22888 27-699): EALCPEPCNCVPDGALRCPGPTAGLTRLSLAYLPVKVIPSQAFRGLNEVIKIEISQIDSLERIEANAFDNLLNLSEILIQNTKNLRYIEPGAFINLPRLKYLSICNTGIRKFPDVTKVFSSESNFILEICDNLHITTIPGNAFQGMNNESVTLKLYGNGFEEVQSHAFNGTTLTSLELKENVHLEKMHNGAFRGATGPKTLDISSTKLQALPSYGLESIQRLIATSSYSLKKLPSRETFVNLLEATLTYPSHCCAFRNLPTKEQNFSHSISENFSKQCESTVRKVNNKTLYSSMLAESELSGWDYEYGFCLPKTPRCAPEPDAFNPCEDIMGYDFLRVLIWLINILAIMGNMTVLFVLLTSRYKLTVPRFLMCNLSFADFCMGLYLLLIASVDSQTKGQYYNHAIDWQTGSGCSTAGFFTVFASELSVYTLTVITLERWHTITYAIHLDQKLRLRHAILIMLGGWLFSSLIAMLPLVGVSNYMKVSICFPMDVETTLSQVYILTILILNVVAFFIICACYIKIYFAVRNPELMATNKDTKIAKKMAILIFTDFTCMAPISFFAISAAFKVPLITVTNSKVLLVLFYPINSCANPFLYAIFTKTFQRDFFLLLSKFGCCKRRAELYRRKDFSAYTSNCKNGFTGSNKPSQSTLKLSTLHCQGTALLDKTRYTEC
Experimental: as §1, §2

T1 sequence (Q9UP38 70-647): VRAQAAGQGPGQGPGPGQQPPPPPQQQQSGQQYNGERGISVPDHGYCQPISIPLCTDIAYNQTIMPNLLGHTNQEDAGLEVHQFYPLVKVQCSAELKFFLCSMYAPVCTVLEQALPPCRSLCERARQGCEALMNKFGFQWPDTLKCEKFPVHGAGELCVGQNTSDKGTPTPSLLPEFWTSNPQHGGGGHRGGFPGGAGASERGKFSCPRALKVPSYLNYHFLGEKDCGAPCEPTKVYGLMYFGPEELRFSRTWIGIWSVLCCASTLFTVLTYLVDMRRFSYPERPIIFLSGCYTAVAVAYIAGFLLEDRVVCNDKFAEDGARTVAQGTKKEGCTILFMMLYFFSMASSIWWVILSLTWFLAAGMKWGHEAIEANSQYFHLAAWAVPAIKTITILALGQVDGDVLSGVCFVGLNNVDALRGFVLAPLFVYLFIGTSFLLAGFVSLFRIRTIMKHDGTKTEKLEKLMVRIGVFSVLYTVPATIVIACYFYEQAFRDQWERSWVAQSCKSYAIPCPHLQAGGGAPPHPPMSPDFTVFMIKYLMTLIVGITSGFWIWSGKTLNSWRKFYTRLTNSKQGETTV

SMILES | NanoBRET Fold Response (FZD1; FZD1, tracer 0.1μM) | NanoBRET Fold Response (FZD1; FZD1, tracer 1μM) | NanoBRET Fold Response (CNR1; CNR1, tracer 0.1μM) | NanoBRET Fold Response (CNR1; CNR1, tracer 1μM) | NanoBRET Fold Response (LHCGR; LHCGR, tracer 0.1μM) | NanoBRET Fold Response (LHCGR; LHCGR, tracer 1μM) | other results
O=C(CCc1ccc2n1[B-](F)(F)[N+]1=C(c3ccc[nH]3)C=CC1=C2)NCc1ccc(C(=O)NCCOCCC(=O)N[C@@H]2CC[C@@]3(O)[C@H]4Cc5ccc(O)c6c5[C@@]3(CCN4CC3CC3)[C@H]2O6)cc1 [Naltrexone-3-NB590] | 1.07 | 1.05 | 0.96 | 0.95 | 0.89 | 1.12 | –
CCCn1c(=O)c2[nH]c(-c3ccc(OCC(=O)NCCNC(=O)CCOCCNC(=O)c4ccc(CNC(=O)CCc5ccc6n5[B-](F)(F)[N+]5=C(c7ccc[nH]7)C=CC5=C6)cc4)cc3)nc2n(CCC)c1=O [XAC-3-NB590] | 0.78 | 1.33 | 1.01 | 1.00 | 1.01 | 1.00 | –
CC(C)N(CC[C@H](c1ccccc1)c1cc(CCNC(=O)c2ccc(CNC(=O)CCc3ccc4n3[B-](F)(F)[N+]3=C(c5ccc[nH]5)C=CC3=C4)cc2)ccc1O)C(C)C [Tolterodine-BZ-NB590] | 1.04 | 0.95 | 1.01 | 0.13 | 0.98 | 1.05 | –
COc1ccc2[nH]c(-c3ccc(CNC(=O)CCOCCOCCOCCOCCNC(=O)CCc4ccc5n4[B-](F)(F)[N+]4=C(c6ccc[nH]6)C=CC4=C5)cc3)c(CCNC(C)=O)c2n1 [AzomelatoninICO9-2-NB590] | – | – | – | – | – | – | NanoBRET Fold Response (FZD1; 0.1μM tracer): 0.86; NanoBRET Fold Response (FZD1; 1μM tracer): 1.05; NanoBRET Fold Response (CNR1; 0.1μM tracer): 0.99; NanoBRET Fold Response (CNR1; 1μM tracer): 1.02; NanoBRET Fold Response (LHCGR; 0.1μM tracer): 1.01; NanoBRET Fold Response (LHCGR; 1μM tracer): 0.88
CN1CCN(C2=Nc3cc(Cl)ccc3N(CC(=O)NCCOCCOCCOCCOCCNC(=O)CCc3ccc4n3[B-](F)(F)[N+]3=C(c5ccc[nH]5)C=CC3=C4)c3ccccc32)CC1 [Clozapine-c-2-NB590] | – | – | – | – | – | – | NanoBRET Fold Response (FZD1; FZD1, 0.1μM tracer): 1.02; NanoBRET Fold Response (FZD1; FZD1, 1μM tracer): 1.06; NanoBRET Fold Response (CNR1; CNR1, 0.1μM tracer): 0.99; NanoBRET Fold Response (CNR1; CNR1, 1μM tracer): 1.05; NanoBRET Fold Response (LHCGR; LHCGR, 0.1μM tracer): 1.05; NanoBRET Fold Response (LHCGR; LHCGR, 1μM tracer): 1.07
COc1ccccc1N1CCN(CCCCN2C(=O)c3ccc(CNC(=O)CCOCCNC(=O)c4ccc(CNC(=O)CCc5ccc6n5[B-](F)(F)[N+]5=C(c7ccc[nH]7)C=CC5=C6)cc4)cc3C2=O)CC1 [NAN-190-3-NB590] | 0.83 | 1.01 | 1.10 | 1.01 | 0.98 | 1.08 | –
Cc1nc2n(c(=O)c1CCN1CCC(c3noc4cc(F)ccc34)CC1)CCCC2OC(=O)NCCOCCOCCOCCOCCNC(=O)CCc1ccc2n1[B-](F)(F)[N+]1=C(c3ccc[nH]3)C=CC1=C2 (centres unmarked) [Risperidone-2-NB590] | 1.02 | 1.00 | 1.00 | 1.02 | 0.99 | 1.04 | –
O=C(CCOCCOCCOCCOCCNC(=O)CCc1ccc2n1[B-](F)(F)[N+]1=C(c3ccc[nH]3)C=CC1=C2)NCCCN1CCN(C2=Nc3ccccc3Oc3ccc(Cl)cc32)CC1 [Loxapine-a-2-NB590] | 1.17 | 1.03 | 0.72 | 0.29 | 0.97 | 1.15 | –
COc1ccccc1N1CCN(CCCCN2C(=O)c3ccc(CNC(=O)CCOCCOCCOCCOCCNC(=O)CCc4ccc5n4[B-](F)(F)[N+]4=C(c6ccc[nH]6)C=CC4=C5)cc3C2=O)CC1 [NAN-190-2-NB590] | 0.99 | 1.06 | 1.02 | – | 0.98 | 1.04 | –
CC(C)N(CC[C@H](c1ccccc1)c1cc(CCNC(=O)CCOCCOCCOCCOCCNC(=O)CCc2ccc3n2[B-](F)(F)[N+]2=C(c4ccc[nH]4)C=CC2=C3)ccc1O)C(C)C [Tolterodine-2-NB590] | 0.97 | 0.97 | 1.03 | 1.14 | 1.08 | 1.02 | –
N#CN=C(NCCCOc1cccc(CN2CCCCC2)c1)NCCNC(=O)CCOCCOCCOCCOCCNC(=O)CCc1ccc2n1[B-](F)(F)[N+]1=C(c3ccc[nH]3)C=CC1=C2 [Aminopotentidine-2-NB590] | 1.07 | 1.12 | 0.98 | 1.00 | 1.03 | 1.00 | –
CCOC(=O)c1cc(C#N)c(N2CCC(C(=O)NS(=O)(=O)Cc3ccccc3/C=C/C(=O)NCCNC(=O)CCc3ccc4n3[B-](F)(F)[N+]3=C(c5ccc[nH]5)C=CC3=C4)CC2)nc1C [AZD1283-1-NB590] | – | – | – | – | – | – | NanoBRET Fold Response (FZD1; FZD1, 0.1μM): 1.06; NanoBRET Fold Response (FZD1; FZD1, 1μM): 1.07; NanoBRET Fold Response (CNR1; CNR1, 0.1μM): 0.97; NanoBRET Fold Response (CNR1; CNR1, 1μM): 0.51; NanoBRET Fold Response (LHCGR; LHCGR, 0.1μM): 1.00; NanoBRET Fold Response (LHCGR; LHCGR, 1μM): 1.02
CN(C)CCC=C1c2ccccc2CCc2ccc(C(=O)NCCNC(=O)CCOCCOCCOCCOCCNC(=O)CCc3ccc4n3[B-](F)(F)[N+]3=C(c5ccc[nH]5)C=CC3=C4)cc21 [Amitriptyline-b-2-NB590] | – | – | 1.03 | 1.04 | 1.05 | 1.00 | NanoBRET Fold Response (FZD1; tracer at 0.1μM, listed as amitriptyline-b-2-NB590): 0.97; NanoBRET Fold Response (FZD1; tracer at 1μM, listed as amitriptyline-b-2-NB590): 1.14
CN(C)CCC=C1c2ccccc2CCc2ccc(C(=O)NCCNC(=O)CCOCCOCCOCCOCCNC(=O)CCc3ccc4n3[B-](F)(F)[N+]3=C(c5ccc[nH]5)C=CC3=C4)cc21 [Amitriptyline-a-2-NB590] | – | – | – | – | – | – | NanoBRET Fold Response (FZD1; tracer at 0.1μM): 0.92; NanoBRET Fold Response (FZD1; tracer at 1μM): 0.98
O=C(CCc1ccc2n1[B-](F)(F)[N+]1=C(c3ccc[nH]3)C=CC1=C2)NCCOCCOCCNC(=O)OCCOCCN1CCN(C2=Nc3ccccc3Sc3ccccc32)CC1 [Quetiapine-a-2-NB590] | 1.14 | 0.96 | 1.00 | 1.00 | 1.01 | 0.79 | –
Cc1cc2c(s1)Nc1ccccc1N=C2N1CCN(CCCNC(=O)CCOCCOCCOCCOCCNC(=O)CCc2ccc3n2[B-](F)(F)[N+]2=C(c4ccc[nH]4)C=CC2=C3)CC1 [Olanzapine-a-2-NB590] | 0.95 | 1.04 | 0.99 | 1.05 | 1.00 | 1.01 | –
CN(CCC=C1c2ccccc2CCc2ccccc21)C(=O)CCOCCOCCOCCOCCNC(=O)CCc1ccc2n1[B-](F)(F)[N+]1=C(c3ccc[nH]3)C=CC1=C2 [Amitriptyline-e-2-NB590] | – | – | – | – | – | – | NanoBRET Fold Response (FZD1; tracer at 1μM): 0.98
